In patent publication US11464802B2, “3-substituted piperidine compounds for Cbl-b inhibition, and use thereof” (Nurix Therapeutics, Inc., priority 2019, dated 2022):

Assays:
[1] = target: T1, Cbl-b (Homo sapiens (Human), UniProt Q13191); assay: Cbl-b displacement assay (Cbl-b inhibition assay), TR-FRET probe displacement, Biological Example 1; type: binding
Procedure, shortened: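 N-terminally Avitagged, biotinylated truncated Cbl-b (0.5 nM "High" or 0.125 nM "Low", final) pre-incubated 1 h at room temperature with compound (1% DMSO) in HEPES pH 7.5 buffer. Then 150 nM BODIPY FL probe (~EC40) plus 2 nM streptavidin-terbium for 1 h; TR-FRET read at 520/620 nm.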

[2] = system: primary human total T-cells; assay: Primary human total T-cell activation: IL-2 secretion, Biological Example 13; type: cell-based; conditions: 48 hours, fold change over baseline; for fold induction at 0.3 µM: inhibitor 0.3 μM; for fold induction at 0.3 µM / fold induction at 3 µM: Table 13-1; for fold induction at 1 µM: inhibitor 1 μM; for fold induction at 3 µM: inhibitor 3 μM
[3] = target: T1, Cbl-b; assay: Cbl-b displacement assay (Cbl-b inhibition assay), Biological Example 12; type: binding; conditions: Table 12-1
Procedure, shortened: (§1)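 Biotinylated Avitag-Cbl-b (residues 36-427) at 0.5 nM ("High") or 0.125 nM ("Low") final was preincubated 1 h at room temperature with compound (1% DMSO) in 20 mM HEPES pH 7.5, 150 mM NaCl, 0.01% Triton X-100, 0.01% BSA, 0.5 mM TCEP. Then 150 nM BODIPY FL inhibitor probe (~EC40) plus 2 nM streptavidin-terbium, 1 h; TR-FRET 520/620 read, IC50 derived.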

[4] = system: primary human total T-cells; assay: Primary human total T-cell activation: CD25 surface staining, Biological Example 2; type: cell-based; conditions: 48 hours, fold change over baseline; for fold induction at 1 µM: inhibitor 1 μM
[5] = system: primary human total T-cells; assay: Primary human total T-cell activation: CD25 surface staining, Biological Example 13; type: cell-based; conditions: 48 hours, fold change over baseline; for fold induction at 0.3 µM: inhibitor 0.3 μM; for fold induction at 0.3 µM / fold induction at 3 µM: Table 13-1; for fold induction at 1 µM: inhibitor 1 μM; for fold induction at 3 µM: inhibitor 3 μM
[6] = system: primary human total T-cells; assay: Primary human total T-cell activation: IL-2 secretion, Biological Example 2; type: cell-based; conditions: 48 hours, fold change over baseline; for fold induction at 1 µM: inhibitor 1 μM
[7] = system: primary human total T-cells; assay: Primary human total T-cell activation: IL-2 secretion, Biological Example 9; type: cell-based; conditions: 48 hours, fold change over baseline; for fold induction at 0.3 µM: inhibitor 0.3 μM; for fold induction at 0.3 µM / fold induction at 3 µM: Table 9-1; for fold induction at 1 µM: inhibitor 1 μM; for fold induction at 3 µM: inhibitor 3 μM
[8] = system: primary human total T-cells; assay: Primary human total T-cell activation: CD25 surface staining, Biological Example 9; type: cell-based; conditions: 48 hours, fold change over baseline; for fold induction at 0.3 µM: inhibitor 0.3 μM; for fold induction at 0.3 µM / fold induction at 3 µM: Table 9-1; for fold induction at 1 µM: inhibitor 1 μM; for fold induction at 3 µM: inhibitor 3 μM
[9] = target: T1, Cbl-b; assay: Cbl-b displacement assay (Cbl-b inhibition assay), Biological Example 8; type: binding; conditions: Table 8-1
Procedure, shortened: as §1

[10] = system: TC-1 cell tumor; assay: Cbl-b inhibitor in combination with HPV16 E7 cancer vaccine in mice bearing syngeneic TC-1 tumor, Biological Example 11; type: in vivo, C57BL/6 mice; conditions: HPV16 E7 vaccine SC + Compound No. 53 180 mg/kg PO BID; TILs on day 10; percent increase relative to vaccine without Cbl-b inhibitor
Experimental: In brief, the combination therapy was tested in C57BL/6 mice bearing a syngeneic TC-1 cell tumor. TC-1 cells were derived from primary murine lung cells, which had been transfected with human papillomavirus strain 16 (HPV16) early proteins 6 and 7 (E6 and E7) and an activated human c-Ha-ras oncogene (Lin et al., Cancer Research, 56: 21-26, 1996). Either 2.5×10^4 (first study) or 5.0×10^4 (second study) TC-1 cells (obtained from Johns Hopkins University) were injected subcutaneously into the mid flank of each mouse. Tumors were allowed to grow to 50-100 mm^3 at which time the animals were randomized and treatment was begun (day 0).
The HPV16 E7 cancer vaccine (Shrimali et al., Cancer Immunol Res, 5: 755-766, 2017) included 100 μg of a synthetic peptide with the amino acid sequence of a CTL epitope of residues 49-57 of E7 ([…] set forth as SEQ ID NO:2), mixed with 20 μg of a synthetic peptide with the amino acid sequence of a Th epitope known as PADRE (aK-Cha-[…]a set for as SEQ ID NO:3, where “a” is D alanine and “Cha” is L-cyclohexylalanine) and 20 μg of a Quil-A® adjuvant marketed by Brenntag Biosector A/S, which contains purified quillaja saponins. The HPV16 E7 vaccine or Dulbecco's phosphate-buffered saline (DPBS) was administered subcutaneously (SC) on days 2 and 9 (=day 16 and day 23 post TC-1 injection). The Cbl-b inhibitor was dissolved in a suitable formulation and administered at a suitable dose level and frequency as informed by prior pharmacokinetic and tolerability studies. In initial studies, the Cbl-b inhibitor (Compound No. 53) in a suitable vehicle, or the vehicle, was administered orally (PO) at a dose of 180 mg/kg twice per day (BID) beginning on day 0 (=day 14 post TC-1 injection). In further studies, a Cbl-b inhibitor formulation was administered orally (PO) or parenterally (e.g., IV, IP, SC, or intratumorally at one to three injection sites per tumor). In addition to the test group of mice who received the combination therapy (the Cbl-b inhibitor formulation plus the HPV16 E7 vaccine), the study included control groups of mice who received: the vehicle formulation plus DPBS, the Cbl-b inhibitor formulation plus DPBS, or the vehicle formulation plus the HPV16 E7 vaccine.
Tumor size was recorded twice a week starting on day 0 (day 14 post TC-1 injection) and continued through duration of dosing until humane endpoints were reached between day 33 and day 42 (=between day 47 and day 56 post TC-1 injection). The level of response was evaluated by comparing tumor growth in the test mice versus the control mice (10 mice per group). In addition, the level of immune activation was assessed by collecting tumors for analysis of tumor infiltrating lymphocytes (TILs) on day 10 (=day 24 post TC-1 injection) in test and control mice (6 mice per group). TILs were processed for flow cytometric analysis using standard methods to determine antigen specificity, expression of cell type-specific markers, and expression of activation markers such as granzyme B, CD25, CD69, PD-1, and LAG3. In further experiments, PBMCs and/or splenocytes were also collected and processed. Augmentation of the anti-tumor immune response by the combination therapy was assessed by comparing the relative percentage of total or E7-specific (tumor antigen-specific) CD8+ T cells, and the relative levels of expression of activation markers on immune cells in mice of the test and study groups.

[11] = anti-CD3/anti-CD28 co-stimulation
[12] = anti-CD3/anti-CD28 co-stimulation, Table 13-1, read-out: IL-2 secretion CD3/CD28 1 μM
[13] = anti-CD3 alone, Table 13-1, read-out: IL-2 secretion CD3 1 μM
[14] = 0.5 nM Cbl-b final concentration (High), read-out: Cbl-b IC50 (High)
[15] = anti-CD3/anti-CD28 co-stimulation, inhibitor 0.3 μM
[16] = anti-CD3/anti-CD28 co-stimulation, Table 13-1, read-out: CD25 staining CD3/CD28 1 μM
[17] = anti-CD3 alone, Table 13-1, read-out: CD25 staining CD3 1 μM
[18] = anti-CD3/anti-CD28 co-stimulation, Table 9-1, read-out: IL-2 secretion CD3/CD28 1 μM
[19] = anti-CD3 alone, Table 9-1, read-out: IL-2 secretion CD3 1 μM
[20] = anti-CD3/anti-CD28 co-stimulation, Table 9-1, read-out: CD25 staining CD3/CD28 1 μM
[21] = anti-CD3 alone, Table 9-1, read-out: CD25 staining CD3 1 μM
[22] = 0.125 nM Cbl-b final concentration (Low), read-out: Cbl-b IC50 (Low)

T1 sequence (Q13191 36-427): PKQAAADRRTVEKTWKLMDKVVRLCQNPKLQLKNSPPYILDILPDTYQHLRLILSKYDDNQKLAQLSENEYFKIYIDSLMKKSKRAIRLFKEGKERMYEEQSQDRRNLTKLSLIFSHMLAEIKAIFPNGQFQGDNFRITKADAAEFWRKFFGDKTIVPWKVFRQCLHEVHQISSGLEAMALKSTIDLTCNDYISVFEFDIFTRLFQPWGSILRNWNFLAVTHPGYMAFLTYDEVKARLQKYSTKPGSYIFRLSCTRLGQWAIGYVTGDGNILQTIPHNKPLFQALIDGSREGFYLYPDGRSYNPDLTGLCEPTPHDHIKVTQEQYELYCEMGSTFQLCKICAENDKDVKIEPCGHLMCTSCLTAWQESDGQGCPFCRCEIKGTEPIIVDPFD

Structure (SMILES)	fold induction at 0.3 µM [2, 11]	fold induction at 1 µM [2, 12]	fold induction at 1 µM [2, 13]	fold induction at 3 µM ([2]; anti-CD3 alone)	fold induction at 0.3 µM [5, 11]	fold induction at 1 µM [5, 16]	fold induction at 1 µM [5, 17]	fold induction at 3 µM ([5]; anti-CD3 alone)	fold induction at 0.3 µM [7, 11]	fold induction at 1 µM [7, 18]	fold induction at 1 µM [7, 19]	fold induction at 3 µM ([7]; anti-CD3 alone)	fold induction at 0.3 µM [8, 11]	fold induction at 1 µM [8, 20]	fold induction at 1 µM [8, 21]	fold induction at 3 µM ([8]; anti-CD3 alone)	other results
CCOc1cc(C2(Cc3nncn3C)COC2)cc(N2Cc3c(cc(CN4CCC(F)(F)[C@H](C)C4)cc3C(F)(F)F)C2=O)n1 [Compound 28, (R)-6-((4,4-difluoro-3-methylpiperidin-1-yl)methyl)-2-(6-ethoxy-4-(3-((4-methyl-4H-1,2,4-triazol-3-yl)methyl)oxetan-3-yl)pyridin-2-yl)-4-(trifluoromethyl)isoindolin-1-one]	11 to 15	11 to 15	0.34 to 0.66	0.34 to 0.66	1.25 to 1.39	< 1.24	1.05 to 1.14	< 1.04	10 to 15	10 to 15	0.34 to 0.66	0.34 to 0.66	1.25 to 1.39	< 1.24	1.05 to 1.14	< 1.04	IC50 ([1]; 0.5 nM Cbl-b final concentration (High), read-out: Cbl-b activity IC50 (High)): 1 to 5 nM; IC50 ([1]; Cbl-b concentration (High or Low) not given, read-out: IC50 values in the Cbl-b inhibition assay of Biological Example 1): 1 to 5 nM; IC50 [3, 14]: 1 to 5 nM; fold induction at 0.3 µM [4, 15]: 1.25 to 1.39; fold induction at 1 µM ([4]; anti-CD3/anti-CD28 co-stimulation, read-out: CD25 staining CD3/CD28 1 μM): < 1.24; fold induction at 1 µM ([4]; anti-CD3 alone, read-out: CD25 staining CD3 1 μM): 1.05 to 1.14; fold induction at 3 µM ([4]; anti-CD3 alone, inhibitor 3 μM): < 1.04; fold induction at 0.3 µM [6, 15]: > 15; fold induction at 1 µM ([6]; anti-CD3/anti-CD28 co-stimulation, read-out: IL-2 secretion CD3/CD28 1 μM): > 15; fold induction at 1 µM ([6]; anti-CD3 alone, read-out: IL-2 secretion CD3 1 μM): 0.34 to 0.66; fold induction at 3 µM ([6]; anti-CD3 alone, inhibitor 3 μM): 0.34 to 0.66; IC50 [9, 14]: 1 to 5 nM
Cc1cc(C(=O)Nc2cccc(C3(Cc4nncn4C)COC3)c2)nc(C2CC2)n1 [Compound 53]	< 10	11 to 15	0.34 to 0.66	0.34 to 0.66	> 1.39	> 1.39	> 1.14	> 1.14	< 10	10 to 15	0.34 to 0.66	0.34 to 0.66	> 1.39	> 1.39	> 1.14	> 1.14	IC50 [3, 22]: > 5 nM; Mean increase in CD8+ T cells in TILs: % E7 positive T cells [10]: 33.7%; Mean increase in CD8+ T cells in TILs: % Granzyme positive (E7+ T cells) [10]: 7.86%; Mean increase in CD8+ T cells in TILs: % Granzyme positive (E7− T cells) [10]: 4.12%; Mean increase in CD8+ T cells in TILs: % LAG3 positive (E7+ T cells) [10]: 13.49%; Mean increase in CD8+ T cells in TILs: % LAG3 positive (E7− cells) [10]: 0.96%; Mean increase in CD8+ T cells in TILs: % PD1 positive (E7+ T cells) [10]: 14.97%; Mean increase in CD8+ T cells in TILs: % PD1 positive (E7− T cells) [10]: 20.23%; IC50 [9, 22]: > 5 nM
